Laboratory results as given in US10189854B2, “Substituted pyrimidine compounds” (Grünenthal GmbH, priority 2014, dated 2019).
Structures can show the parent of a compound that is named as a salt.

Target: human PDE4B1 (Homo sapiens (Human), UniProt Q07343)
Test: TR-FRET assay using the LANCE Ultra cAMP kit to determine the activity of hPDE4B1
Type: biochemical
Conditions: IC50 inhibition of PDE4B, mean
Method in brief: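 Recombinant human PDE4B1 (Sf9-expressed, 0.96 U) incubated with compound and 500 nM cAMP in 50 mM Tris-HCl, 50 mM MgCl2, 5 mM DTT, pH 8.5, 30 min at room temperature. Residual cAMP read by TR-FRET (665/620 nm ratio) after IBMX stop. IC50 from ten-concentration curves as % inhibition of control.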

Chain of human PDE4B1 (Q07343 whole entry): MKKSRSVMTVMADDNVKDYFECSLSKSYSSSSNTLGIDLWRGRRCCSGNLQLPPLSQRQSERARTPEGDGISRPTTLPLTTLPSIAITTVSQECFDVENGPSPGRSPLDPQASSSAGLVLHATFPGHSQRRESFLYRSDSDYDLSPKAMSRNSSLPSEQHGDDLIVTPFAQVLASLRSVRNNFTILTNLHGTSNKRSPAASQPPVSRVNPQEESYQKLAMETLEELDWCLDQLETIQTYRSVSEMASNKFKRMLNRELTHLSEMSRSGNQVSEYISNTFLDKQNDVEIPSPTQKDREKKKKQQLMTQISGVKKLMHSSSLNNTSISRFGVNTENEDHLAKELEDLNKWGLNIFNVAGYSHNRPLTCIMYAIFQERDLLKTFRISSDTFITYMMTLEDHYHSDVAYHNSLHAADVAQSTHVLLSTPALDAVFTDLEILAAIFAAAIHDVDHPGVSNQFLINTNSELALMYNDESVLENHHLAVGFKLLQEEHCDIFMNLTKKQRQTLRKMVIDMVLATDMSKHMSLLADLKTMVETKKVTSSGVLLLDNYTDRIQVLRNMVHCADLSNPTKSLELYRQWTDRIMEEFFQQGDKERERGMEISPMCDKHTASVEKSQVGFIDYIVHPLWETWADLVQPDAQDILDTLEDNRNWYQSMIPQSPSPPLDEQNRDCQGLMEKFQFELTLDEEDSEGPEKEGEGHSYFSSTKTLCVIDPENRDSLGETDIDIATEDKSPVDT

Row | Structure (SMILES) | IC50 [µM]
1 | CC(=O)Nc1ccnc(-c2cnc(N3CC4(CC4)c4ccc(C(=O)N5CC6CC5CN6)cc43)nc2)c1 (centres unmarked) [Compound 279, N-(2-(2-(6′-(2,5-diazabicyclo[2.2.1]heptane-2-carbonyl)spiro[cyclopropane-1,3′-indolin]-1′-yl)pyrimidin-5-yl)pyridin-4-yl)acetamide.HCl] | < 0.1
2 | COc1cc(C2CC2)cc(-c2cnc(N3CC4(CC4)c4ccc(C(=O)N(C)CCO)cc43)nc2)n1 [Compound 361, 1′-(5-(4-cyclopropyl-6-methoxypyridin-2-yl)pyrimidin-2-yl)-N-(2-hydroxyethyl)-N-methylspiro[cyclopropane-1,3′-indoline]-6′-carboxamide] | 0.1 to 1
3 | CN(CC(=O)O)C(=O)c1ccc2c(c1)N(c1ncc(-c3ccccc3F)cn1)CC21CC1 [Compound 245, 2-[[1-[5-(2-Fluorophenyl)-pyrimidin-2-yl]-spiro[1,2-dihydro-indole-3,1′-cyclopropane]-6-carbonyl]-methyl-amino]-acetic acid] | < 0.1
4 | CCNc1ccnc(-c2cnc(N3CC4(CC4)c4ccc(C(=O)N(C)CCO)cc43)nc2)c1 [Compound 316, 1-[5-(4-Ethylamino-pyridin-2-yl)-pyrimidin-2-yl]-N-(2-hydroxy-ethyl)-N-methyl-spiro[1,2-dihydro-indole-3,1′-cyclopropane]-6-carboxylic acid amide] | < 0.1
5 | CN(C)c1ccnc(-c2cnc(N3CC4(CC4)c4ccc(C(=O)N5CCCC5)cc43)nc2)c1 [Compound 276, [1-[5-(4-Dimethylamino-pyridin-2-yl)-pyrimidin-2-yl]-spiro[1,2-dihydro-indole-3,1′-cyclopropane]-6-yl]-pyrrolidin-1-yl-methanone] | < 0.1
6 | CN(CC(N)=O)C(=O)c1ccc2c(c1)N(c1ncc(-c3ccccc3F)cn1)CC21CC1 [Compound 256, N-(Carbamoyl-methyl)-1-[5-(2-fluorophenyl)-pyrimidin-2-yl]-N-methyl-spiro[1,2-dihydro-indole-3,1′-cyclopropane]-6-carboxylic acid amide] | < 0.1

Now from value to compound:

Row | IC50 [µM] | Structure (SMILES)
7 | < 0.1 | CN(CCO)C(=O)c1ccc2c(c1)N(c1ncc(-c3cccc(F)n3)cn1)CC21CC1 [Compound 230, 1-[5-(6-Fluoro-pyridin-2-yl)-pyrimidin-2-yl]-N-(2-hydroxy-ethyl)-N-methyl-spiro[1,2-dihydro-indole-3,1′-cyclopropane]-6-carboxylic acid amide]
8 | < 0.1 | COc1cc(C)nc(-c2cnc(N3CC4(CC4)c4ccc(C(=O)N(C)CCO)cc43)nc2)c1 [Compound 282, N-(2-Hydroxy-ethyl)-1-[5-(4-methoxy--methyl-pyridin-2-yl)-pyrimidin-2-yl]-N-methyl-spiro[1,2-dihydro-indole-3,1′-cyclopropane]-6-carboxylic acid amide]
9 | < 0.1 | O=C(c1ccc2c(c1)N(c1ncc(-c3ccccc3F)cn1)CC21CC1)N1CCO[C@H](CO)C1 [Compound 354, [1-[5-(2-Fluorophenyl)-pyrimidin-2-yl]-spiro[1,2-dihydro-indole-3,1′-cyclopropane]-6-yl]-[(2S)-2-(hydroxymethyl)-morpholin-4-yl]-methanone]
10 | < 0.1 | CN(CCO)C(=O)c1ccc2c(c1)N(c1ncc(-c3cn(C)cn3)cn1)CC21CC1 [Compound 323, N-(2-Hydroxy-ethyl)-N-methyl-1-[5-(1-methyl-1H-imidazol-4-yl)-pyrimidin-2-yl]-spiro[1,2-dihydro-indole-3,1′-cyclopropane]-6-carboxylic acid amide]
11 | < 0.1 | CN(CCO)C(=O)c1ccc2c(c1)N(c1ncc(-c3cc(N)ccc3F)cn1)CC21CC1 [Compound 228, 1-[5-(5-Amino-2-fluoro-phenyl)-pyrimidin-2-yl]-N-(2-hydroxy-ethyl)-N-methyl-spiro[1,2-dihydro-indole-3,1′-cyclopropane]-6-carboxylic acid amide]
